The record followed here is EPA's ToxRefDB 2.

As usually defined, the LOAEL is the lowest dose or exposure tested at which an adverse effect was seen. What is called NOAEL is the highest tested level that showed no adverse finding.

Series [1] has as its system dog. As to conditions: Chronic toxicity, beagle, Oral, Feed, dose end: 2 year, group: systemic.
In series [2] the test system is rat. As to conditions: Carcinogenicity; sprague dawley; Oral; Gavage/Intubation; dose end: 105 week; group: systemic; systemic / clinical chemistry / [other] / [other] + systemic / organ weight / liver / relative to body weight + systemic / organ weight / ….
Series [3] has as its system rat. The following applies: Carcinogenicity, Osborne-Mendel, Oral, Gavage/Intubation, dose end: 104 week, group: systemic.
The subject of series [4] is rat. The following applies: Sub-acute repeat dose toxicity, wistar, Oral, Gavage/Intubation, dose end: 28 day.
The subject of series [5] is primate. The following applies: Sub-acute repeat dose toxicity; Oral; Gavage/Intubation; dose end: 28 day; group: systemic; systemic / in life observation / clinical signs / defecation (diarrhea) + systemic / in life observation / food consumption / food ….
Series [6] relates to dog. As to conditions: Sub-acute repeat dose toxicity, beagle, Oral, Gavage/Intubation, dose end: 14 day, group: systemic.
The test system of series [7] is rat. The following applies: Subchronic oral toxicity in rodents, wistar, Feed, dose end: 3 month, group: systemic.
In series [8] the test system is rat. The following applies: Combined chronic toxicity/carcinogenicity, wistar, Oral, Feed, dose end: 104 week, group: systemic.
In series [9] the test system is rat. The following applies: Prenatal developmental toxicity study, other, Oral, Gavage/Intubation, dose end: 15 GD.
Series [10] has as its system rat. The following applies: Combined chronic toxicity/carcinogenicity, wistar, Oral, Feed, dose end: 104 week, group: systemic. The source holds these as a separate data set.
In series [11] the test system is rat. The following applies: Multigenerational reproductive toxicity study, sprague dawley, Oral, Feed, dose end: 2 generation.
For series [12], the system named is mouse. As to conditions: Sub-acute repeat dose toxicity; b6c3f1; Oral; Feed; dose end: 14 day; group: systemic; systemic / in life observation / clinical signs / feces, discoloration.
Series [13] deals with rat. The following applies: Sub-acute repeat dose toxicity; fischer; Oral; Feed; dose end: 14 day; group: systemic; systemic / in life observation / clinical signs / feces, discoloration + systemic / in life observation / food consumption / food ….
Series [14] deals with mouse. As to conditions: Subchronic oral toxicity in rodents, b6c3f1, Feed, dose end: 13 week, group: systemic.
In series [15] the test system is mouse. As to conditions: Subchronic oral toxicity in rodents, b6c3f1, Feed, dose end: 13 week, group: systemic. The source holds these as a separate data set.
For series [16], the system named is rat. As to conditions: Carcinogenicity; fischer; Oral; Feed; dose end: 105 week; group: systemic; systemic / in life observation / body weight / body weight + systemic / pathology microscopic / kidney / nephropathy + systemic / pathology ….
Series [17] has as its system mouse. The following applies: Combined chronic toxicity/carcinogenicity; b6c3f1; Oral; Feed; dose end: 104 week; group: systemic; systemic / pathology microscopic / blood / lymphoma malignant + systemic / pathology microscopic / ovary / interstitial stromal tumor + ….
Series [18] concerns rat. The following applies: Subchronic oral toxicity in rodents, fischer, Feed, dose end: 13 week, group: systemic.
Series [19] relates to rat. The following applies: Subchronic oral toxicity in rodents, fischer, Feed, dose end: 13 week, group: systemic. This is another data set of the same source.
Series [20] relates to rat. The following applies: Combined chronic toxicity/carcinogenicity; fischer; Oral; Feed; dose end: 104 week; group: systemic; systemic / pathology microscopic / adrenal gland / pheochromocytoma benign + systemic / pathology microscopic / adrenal gland / ….
Series [21] deals with mouse. As to conditions: Carcinogenicity, b6c3f1, Oral, Feed, dose end: 105 week, group: systemic.
In series [22] the test system is mouse. The following applies: Carcinogenicity; b6c3f1; Oral; Feed; dose end: 104 week; group: systemic; systemic / in life observation / body weight / body weight.
Setting [23] is: systemic / clinical chemistry / bilirubin / total bilirubin + systemic / hematology / anisocytosis / anisocytosis + systemic / hematology / ….
The mark [24] stands for this setting: systemic / clinical chemistry / glucose / glucose.
Where [25] appears, read: systemic / pathology microscopic / liver / carcinoma + systemic / pathology microscopic / liver / neoplastic nodule + systemic / pathology ….
[26] abbreviates: systemic / pathology microscopic / thyroid gland / adenoma.
Where [27] appears, read: group: systemic, systemic / hematology / polychromasia / polychromasia + systemic / in life observation / body weight / body weight + systemic / in life ….
Where [28] appears, read: group: systemic, systemic / pathology microscopic / ovary / degeneration.
[29] abbreviates: systemic / in life observation / body weight / body weight + systemic / in life observation / clinical signs / salivation + systemic / in ….
The mark [30] stands for this setting: systemic / in life observation / body weight / body weight + systemic / pathology microscopic / kidney / vacuolization cytoplasmic + ….
[31] abbreviates: systemic / clinical chemistry / [other] / [other] + systemic / in life observation / body weight / body weight gain.
Where [32] appears, read: systemic / organ weight / kidney / absolute + systemic / organ weight / kidney / relative to body weight + systemic / organ weight / kidney….
Where [33] appears, read: systemic / hematology / platelet / platelet + systemic / organ weight / liver / relative to body weight + systemic / pathology microscopic….
Setting [34] is: systemic / pathology microscopic / adrenal gland / pheochromocytoma benign + systemic / pathology microscopic / adrenal gland / ….
[35] abbreviates: group: developmental, developmental / developmental malformation / bone / full supernumerary + developmental / developmental malformation / general / [other].
[36] abbreviates: group: maternal, systemic / in life observation / body weight / body weight gain + systemic / in life observation / food consumption / food consumption.
[37] abbreviates: group: maternal, systemic / in life observation / body weight / body weight gain + systemic / in life observation / food consumption / food consumption + ….
The mark [38] stands for this setting: systemic / clinical chemistry / alpha-2 globulin / alpha-2 globulin.
The mark [39] stands for this setting: systemic / clinical chemistry / alpha-2 globulin / alpha-2 globulin + systemic / hematology / platelet / platelet + systemic / organ weight….
Setting [40] is: group: offspring, developmental / offspring survival late / viability index / viability index + systemic / in life observation / body weight / offspring (pup….
Setting [41] is: group: parental, systemic / clinical chemistry / alpha-2 globulin / alpha-2 globulin + systemic / organ weight / kidney / absolute + systemic / organ weight….
The mark [42] stands for this setting: systemic / organ weight / epididymis / nos + systemic / organ weight / liver / absolute + systemic / organ weight / testes / absolute + ….
Where [43] appears, read: systemic / organ weight / testes / absolute.
Where [44] appears, read: systemic / organ weight / epididymis / absolute + systemic / organ weight / testes / absolute + systemic / organ weight / testes / relative ….
[45] abbreviates: systemic / organ weight / liver / absolute + systemic / organ weight / liver / relative to body weight.
[46] abbreviates: systemic / clinical chemistry / bile acids / bile acids + systemic / in life observation / food consumption / food consumption + systemic / ….
[47] abbreviates: systemic / pathology microscopic / spleen / hematopoietic cell proliferation + systemic / pathology microscopic / testes / degeneration.
[48] abbreviates: systemic / pathology microscopic / spleen / hematopoietic cell proliferation + systemic / pathology microscopic / testes / degeneration + ….

Turning to `CC(O)CO` (configuration not stated) [1,2-Propylene glycol], in series [1] (setting [23]), the lowest observed adverse effect level (LOAEL) is > 5000 mg/kg/day and the NOAEL is ≥ 5000 mg/kg/day. For the same molecule, in series [1] (setting [24]), the LEL was 2000 mg/kg/day and the NEL is < 2000 mg/kg/day.

With `Clc1cc2c(cc1Cl)Oc1cc(Cl)c(Cl)cc1O2` [2,3,7,8-Tetrachlorodibenzo-p-dioxin], in [2], the LEL amounted to 3e-06 mg/kg/day, the LOAEL is > 0.0001 mg/kg/day, the NEL was < 3e-06 mg/kg/day and the no observed adverse effect level (NOAEL) is ≥ 0.0001 mg/kg/day. Further, in series [3] (setting [25]), the LOAEL was > 0.0005 mg/kg/day and the NOAEL was ≥ 0.0005 mg/kg/day. In series [3] (setting [26]), the LEL was 1e-05 mg/kg/day and the NEL is < 1e-05 mg/kg/day.

For the molecule `O=c1[nH]c2ccc(S(=O)CCN3CCC(Cc4ccc(F)cc4)CC3)cc2o1` (configuration not stated) [Besonprodil], the LEL was 200 mg/kg/day in series [4] (group: maternal, reproductive / reproductive performance / estrous cycle / absent corpora lutea); 25 mg/kg/day in [4] (setting [28]); 25 mg/kg/day in series [5]; 30 mg/kg/day in series [6] (setting [29]). The LOAEL in series [4] (setting [27]) is > 300 mg/kg/day; in series [5], > 500 mg/kg/day; in [6] (setting [30]) it was > 300 mg/kg/day. In addition, the NOAEL in [4] (setting [27]) is ≥ 300 mg/kg/day; in series [5] it was ≥ 500 mg/kg/day; in series [6] (setting [30]) it was ≥ 300 mg/kg/day. Besides, the NEL in [4] (setting [28]) is < 25 mg/kg/day; in [5] it was < 25 mg/kg/day; in series [6] (setting [29]), < 30 mg/kg/day.

With `ClC1C(Cl)C(Cl)C(Cl)C(Cl)C1Cl` (configuration not stated) [Lindane], the LEL was found to be 0.01 mg/kg/day in series [7] (setting [31]); 0.05 mg/kg/day in series [8] (setting [34]); 20 mg/kg/day in series [9] (setting [35]); 10 mg/kg/day in [9] (setting [36]); 0.05 mg/kg/day in [10] (setting [38]); 13.1 mg/kg/day in series [11] (setting [40]). Further, the LEL in series [11] (setting [41]) is 1.71 mg/kg/day. Moreover, the NEL in series [7] (setting [31]) is < 0.01 mg/kg/day; in series [8] (setting [34]), < 0.05 mg/kg/day; in series [9] (setting [35]) it was 10 mg/kg/day; in series [9] (setting [37]), 5 mg/kg/day; in [10] (setting [38]), < 0.05 mg/kg/day; in [11] (setting [40]), 1.71 mg/kg/day. In addition, the NEL in series [11] (setting [41]) amounted to 0.0865 mg/kg/day. For the same molecule, the LOAEL in series [7] (setting [32]) was found to be 1 mg/kg/day; in [8] (setting [33]) it was 4.81 mg/kg/day; in series [9] (setting [35]) it was 20 mg/kg/day; in series [9] (setting [36]), 10 mg/kg/day; in series [10] (setting [39]), 4.81 mg/kg/day; in [11] (setting [40]), 13.1 mg/kg/day. Further, the lowest-observed-adverse-effect level (LOAEL) in series [11] (group: parental, systemic / clinical chemistry / alpha-2 globulin / alpha-2 globulin) came to 1.71 mg/kg/day. The NOAEL in series [7] (setting [32]) worked out at 0.2 mg/kg/day; in series [8] (setting [33]), 0.47 mg/kg/day; in [9] (setting [35]), 10 mg/kg/day; in [9] (setting [37]) it was 5 mg/kg/day; in series [10] (setting [39]), 0.47 mg/kg/day; in series [11] (setting [40]), 1.71 mg/kg/day. Also, in [11] (setting [41]), the NOAEL was 0.0865 mg/kg/day.

As for `O=C1OC(c2ccc(O)cc2)(c2ccc(O)cc2)c2ccccc21` [Phenolphthalein], the LEL in series [12] was 15000 mg/kg/day; in series [13], 10500 mg/kg/day; in series [14] (setting [43]) it was 509 mg/kg/day; in series [15] (setting [43]), 500 mg/kg/day; in series [16], 500 mg/kg/day; in series [17] it was 300 mg/kg/day. The LEL amounted to 800 mg/kg/day in series [18] (systemic / organ weight / liver / relative to body weight), 383 mg/kg/day in [19] (systemic / clinical chemistry / bile acids / bile acids), 500 mg/kg/day in series [20] and 300 mg/kg/day in [21] (setting [48]). For the same molecule, the LOAEL in series [12] was > 15000 mg/kg/day; in series [13] it was > 10500 mg/kg/day; in [14] (setting [42]), > 9140 mg/kg/day; in series [15] (setting [44]) it was 2000 mg/kg/day; in series [16], 500 mg/kg/day; in series [17] it was > 1200 mg/kg/day. For the same molecule, the LOAEL in series [18] (setting [45]) was > 3500 mg/kg/day; in [19] (setting [46]), > 3490 mg/kg/day; in series [20], > 2000 mg/kg/day; in [21] (setting [47]), 300 mg/kg/day. In addition, the NEL in [12] was 7500 mg/kg/day; in series [13], 4500 mg/kg/day; in series [14] (setting [43]), < 509 mg/kg/day; in [15] (setting [43]), < 500 mg/kg/day; in series [16] it was < 500 mg/kg/day; in series [17], < 300 mg/kg/day. Besides, the NEL is 400 mg/kg/day in series [18] (setting [45]), 192 mg/kg/day in [19] (setting [46]), < 500 mg/kg/day in [20] and < 300 mg/kg/day in series [21] (setting [48]). In addition, the NOAEL in series [12] was ≥ 15000 mg/kg/day; in series [13] it was ≥ 10500 mg/kg/day; in series [14] (setting [42]), ≥ 9140 mg/kg/day; in series [15] (setting [44]), 1000 mg/kg/day; in series [16] it was < 500 mg/kg/day; in [17], ≥ 1200 mg/kg/day. The NOAEL in [18] (setting [45]) was ≥ 3500 mg/kg/day; in series [19] (setting [46]), ≥ 3490 mg/kg/day; in series [20] it was ≥ 2000 mg/kg/day; in series [21] (setting [47]), < 300 mg/kg/day.

On to `O=C1OC(=O)c2ccccc21` [Phthalic anhydride], for which, in series [22], the LEL was 1800 mg/kg/day, the lowest-observed-adverse-effect level (LOAEL) was determined as 1800 mg/kg/day, the NEL was < 1800 mg/kg/day and the NOAEL was < 1800 mg/kg/day.
